Paper PMC9870890 (Nature Communications, 2023)
Numbering of substitutions follows the chain as printed. “And” between values parts separate entries of the source, which are not always exact repeats. Equal values may be shown once.

Key:
human, wild-type M2R = biological target: T1, human, wild-type M2R (Homo sapiens, UniProt P08172); test: NanoBiT-G-protein (GoA) dissociation assay, wild-type M2R, HEK293A cells; type: cell-based; conditions: for NanoBiT-GoA dissociation signal, Mean (Veh = 1.000): n = 4
T1 construct: expressed in transfected cells; host or cells: HEK293A
T1 sequence (P08172 1-466): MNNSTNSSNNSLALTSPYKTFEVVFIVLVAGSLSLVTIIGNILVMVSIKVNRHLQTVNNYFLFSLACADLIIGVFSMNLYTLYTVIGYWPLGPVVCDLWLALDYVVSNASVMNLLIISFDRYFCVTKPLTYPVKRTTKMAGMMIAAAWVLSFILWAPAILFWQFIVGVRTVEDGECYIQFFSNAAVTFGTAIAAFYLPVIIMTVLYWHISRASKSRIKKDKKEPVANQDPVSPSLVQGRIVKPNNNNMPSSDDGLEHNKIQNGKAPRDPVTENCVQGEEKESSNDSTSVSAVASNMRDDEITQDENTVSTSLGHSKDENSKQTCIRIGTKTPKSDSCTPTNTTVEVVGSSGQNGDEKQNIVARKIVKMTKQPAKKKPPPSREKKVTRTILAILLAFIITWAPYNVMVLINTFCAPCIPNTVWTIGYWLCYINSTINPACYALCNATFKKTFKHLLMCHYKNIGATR
Procedure: Plasmid transfection for HEK293A cells (Thermo Fisher Scientific) was performed by combining 25 µl (volume is per 10-cm culture dish) of polyethylenimine solution (1 mg/mL) and a mixture of plasmids each encoding the large fragment (LgBiT)-containing the GαoA subunit (500 ng), the small fragment (SmBiT)-fused Gγ2 subunit with the C68S mutation (2.5 µg) and the untagged Gβ1 subunit (2.5 µg), along with a human, wild-type M2R (1 µg; containing N-terminal HA-derived signal sequence followed by the FLAG-epitope tag). After an incubation for one day, the transfected cells were harvested, pelleted with centrifugation, and suspended in 9 ml of Hank’s balanced saline solution (HBSS) containing 0.01% bovine serum albumin (BSA fatty acid–free grade, SERVA) and 5 mM HEPES (pH 7.4) (assay buffer). The cell suspension was dispensed in a white 96-well plate at a volume of 70 µl per well and mixed with 20 µl of 50 µM coelenterazine (Carbosynth) diluted in the assay buffer. After 2 h incubation at room temperature, the plate was measured for baseline luminescence (SpectraMax L, Molecular Devices) and 10 µl of titrated concentrations of LY2119620 diluted in the assay buffer were added. […] Kinetics data points from 5 min to 10 min were averaged and normalized to the initial count and used as a G-protein dissociation index. […] The G-protein dissociation signals were fitted to a four-parameter sigmoidal concentration-response curve (GraphPad Prism8). For each experiment, we calculated Emax by normalizing Span to the LY2119620-free condition and ∆pEC50 by subtracting pEC50 of the LY2119620-free condition performed in parallel and used the values to denote allosteric modulator activity.

M2R and GoA = biological target: T2, M2R and GoA (Homo sapiens, UniProt P08172); test: GTPase-Glo assay (GTP turnover) with purified M2R and GoA; type: biochemical; conditions: for Residual GTP (%): 90 min, normalized to GoA alone
T2 construct: FLAG (N); 8xHis (C); made in house; host or cells: Sf9 insect cells (receptor)
Procedure: The receptors for GTPase-Glo^TM assay were expressed and purified as described above and frozen at −80 °C before use. […] The GTPase reaction was incubated at room temperature (22–25 °C) for different times (15–90 min). […] After incubation, 5 μL reconstituted 1xGTPase-Glo^TM Reagent (Promega) was added to the completed GTPase reaction, mixed briefly and incubated with shaking for 30 min at room temperature (22–25 °C) to convert the remaining GTP into ATP. Then 10 μL Detection Reagent (Promega) was added to the system and incubated for 5-10 min at room temperature (22–25 °C) to convert the ATP into luminescent signals. Luminescence intensity was quantified using a Multimode Plate Reader (PerkinElmer) luminescence counter.

M2R L129^34.51A mutant = biological target: T3, M2R L129^34.51A mutant (Homo sapiens, UniProt P08172, L129A); test: NanoBiT-GoA dissociation assay, L129A mutant M2R
T3 sequence (P08172 1-466 L129A): T1 sequence (P08172 1-466) with L129A
Procedure: Plasmid transfection for HEK293A cells (Thermo Fisher Scientific) was performed by combining 25 µl (volume is per 10-cm culture dish) of polyethylenimine solution (1 mg/mL) and a mixture of plasmids each encoding the large fragment (LgBiT)-containing the GαoA subunit (500 ng), the small fragment (SmBiT)-fused Gγ2 subunit with the C68S mutation (2.5 µg) and the untagged Gβ1 subunit (2.5 µg), along with a human, wild-type M2R (1 µg; containing N-terminal HA-derived signal sequence followed by the FLAG-epitope tag). After an incubation for one day, the transfected cells were harvested, pelleted with centrifugation, and suspended in 9 ml of Hank’s balanced saline solution (HBSS) containing 0.01% bovine serum albumin (BSA fatty acid–free grade, SERVA) and 5 mM HEPES (pH 7.4) (assay buffer). The cell suspension was dispensed in a white 96-well plate at a volume of 70 µl per well and mixed with 20 µl of 50 µM coelenterazine (Carbosynth) diluted in the assay buffer. […] Kinetics data points from 5 min to 10 min were averaged and normalized to the initial count and used as a G-protein dissociation index. For the mutant study, the cell culture and the transfection mixture were scaled down to a 6-cm dish (4 ml culture media) and the transfected cells were suspended in 4 ml of the assay buffer and seeded in the 96-well plate at a volume of 80 µL. The G-protein dissociation signals were fitted to a four-parameter sigmoidal concentration-response curve (GraphPad Prism8). For each experiment, we calculated Emax by normalizing Span to the LY2119620-free condition and ∆pEC50 by subtracting pEC50 of the LY2119620-free condition performed in parallel and used the values to denote allosteric modulator activity. Similarly, for the mutant study, we calculated ∆pEC50 by subtracting pEC50 of the WT (1:1) condition performed in parallel.

Mock = test: NanoBiT-GoA dissociation assay, Mock-transfected cells (control); type: cell-based
M2R = biological target: T4, M2R (Homo sapiens, UniProt P08172); test: biochemical; type: binding; design: expressed in transfected cells; conditions: for IC50: IC50 ([3H]-NMS competition)
T4 sequence (P08172 1-466): T1 sequence (P08172 1-466)
Procedure: Purified M2R receptor was reconstituted into high-density lipoprotein (HDL) particles constituting apolipoprotein A1(APOA1) and mixture of POPG: POPC lipids with 3:2 (mol:mol)ratio as previously described. […] Membranes or HDL particles were separated from excess [^3H]-NMS by Whatman GF/B filters using a Brandel 48-well harvester. The bound radioligand were read on a liquid scintillation counter (MicroBeta Jet, PerkinElmer). Data were analyzed by GraphPad Prism 9.2.0.

T2 sequence (P59768 2-68, one chain of several): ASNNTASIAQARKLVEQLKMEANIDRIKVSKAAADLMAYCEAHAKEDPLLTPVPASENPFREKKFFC
T2 sequence (P09471 2-354, one chain of several, further chain): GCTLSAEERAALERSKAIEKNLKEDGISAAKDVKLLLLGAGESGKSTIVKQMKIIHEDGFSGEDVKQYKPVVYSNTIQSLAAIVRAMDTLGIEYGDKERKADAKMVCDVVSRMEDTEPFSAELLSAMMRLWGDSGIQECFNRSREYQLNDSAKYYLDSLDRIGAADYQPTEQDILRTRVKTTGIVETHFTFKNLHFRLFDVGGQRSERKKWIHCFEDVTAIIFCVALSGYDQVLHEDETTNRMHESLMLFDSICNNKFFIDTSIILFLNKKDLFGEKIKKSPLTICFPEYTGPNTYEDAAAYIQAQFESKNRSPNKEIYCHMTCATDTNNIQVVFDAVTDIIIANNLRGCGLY
T2 sequence (P62873 whole entry, one chain of several, further chain): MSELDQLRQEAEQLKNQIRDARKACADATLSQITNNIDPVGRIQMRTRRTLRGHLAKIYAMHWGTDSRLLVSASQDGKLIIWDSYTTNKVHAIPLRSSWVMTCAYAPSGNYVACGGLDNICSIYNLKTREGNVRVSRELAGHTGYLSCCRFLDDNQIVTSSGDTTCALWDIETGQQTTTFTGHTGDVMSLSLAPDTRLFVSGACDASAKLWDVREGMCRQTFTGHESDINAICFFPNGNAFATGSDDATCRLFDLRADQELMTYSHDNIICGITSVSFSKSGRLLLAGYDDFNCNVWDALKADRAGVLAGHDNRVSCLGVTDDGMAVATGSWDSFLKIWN

C[N+](C)(C)CC#CCOC1=NOCC1 [Ixo, iperoxo]
∆pEC50 (human, wild-type M2R; WT (1:1), reference): 0.000
NanoBiT-GoA dissociation signal, Mean (Veh = 1.000) (human, wild-type M2R; WT (1:1), IXO Log [M] -6): 0.334
NanoBiT-GoA dissociation signal, Mean (Veh = 1.000) (human, wild-type M2R; WT (1:1), IXO Log [M] -7): 0.343
NanoBiT-GoA dissociation signal, Mean (Veh = 1.000) (human, wild-type M2R; WT (1:1), IXO Log [M] -8): 0.377
NanoBiT-GoA dissociation signal, Mean (Veh = 1.000) (human, wild-type M2R; WT (1:1), IXO Log [M] -9): 0.510
NanoBiT-GoA dissociation signal, Mean (Veh = 1.000) (human, wild-type M2R; WT (1:1), IXO Log [M] -10): 0.788
NanoBiT-GoA dissociation signal, Mean (Veh = 1.000) (human, wild-type M2R; WT (1:1), IXO Log [M] -11): 0.961
NanoBiT-GoA dissociation signal, Mean (Veh = 1.000) (human, wild-type M2R; WT (1:1), IXO Log [M] -12): 1.000
∆pEC50 (human, wild-type M2R; WT (1:2)): -0.203 and -0.153 and -0.342 and -0.212
NanoBiT-GoA dissociation signal, Mean (Veh = 1.000) (human, wild-type M2R; WT (1:2), IXO Log [M] -6): 0.338
NanoBiT-GoA dissociation signal, Mean (Veh = 1.000) (human, wild-type M2R; WT (1:2), IXO Log [M] -7): 0.345
NanoBiT-GoA dissociation signal, Mean (Veh = 1.000) (human, wild-type M2R; WT (1:2), IXO Log [M] -8): 0.397
NanoBiT-GoA dissociation signal, Mean (Veh = 1.000) (human, wild-type M2R; WT (1:2), IXO Log [M] -9): 0.567
NanoBiT-GoA dissociation signal, Mean (Veh = 1.000) (human, wild-type M2R; WT (1:2), IXO Log [M] -10): 0.844
NanoBiT-GoA dissociation signal, Mean (Veh = 1.000) (human, wild-type M2R; WT (1:2), IXO Log [M] -11): 0.975
NanoBiT-GoA dissociation signal, Mean (Veh = 1.000) (human, wild-type M2R; WT (1:2), IXO Log [M] -12): 1.005
Residual GTP (%) (M2R and GoA; +DMSO): 7.331% and 3.598% and 1.619%
Residual GTP (%) (M2R and GoA; +LY2119620 (100 μM)): 34.958% and 41.3656% and 22.0231%
GTP-turnover, Fig. 1c (GTPase-Glo luminescence) (M2R and GoA; time 15 min, 100 μM ACh or 10 μM Ixo, M2R-GoA): 432481 and 362971 and 431239 and 324973
∆pEC50 (M2R L129^34.51A mutant): -0.434 and -0.475 and -0.315
NanoBiT-GoA dissociation signal, Mean (Veh = 1.000) (M2R L129^34.51A mutant; IXO Log [M] -6, n = 3): 0.336
NanoBiT-GoA dissociation signal, Mean (Veh = 1.000) (M2R L129^34.51A mutant; IXO Log [M] -7, n = 3): 0.355
NanoBiT-GoA dissociation signal, Mean (Veh = 1.000) (M2R L129^34.51A mutant; IXO Log [M] -8, n = 3): 0.423
NanoBiT-GoA dissociation signal, Mean (Veh = 1.000) (M2R L129^34.51A mutant; IXO Log [M] -9, n = 3): 0.635
NanoBiT-GoA dissociation signal, Mean (Veh = 1.000) (M2R L129^34.51A mutant; IXO Log [M] -10, n = 3): 0.887
NanoBiT-GoA dissociation signal, Mean (Veh = 1.000) (M2R L129^34.51A mutant; IXO Log [M] -11, n = 3): 0.985
NanoBiT-GoA dissociation signal, Mean (Veh = 1.000) (M2R L129^34.51A mutant; IXO Log [M] -12, n = 3): 1.001
NanoBiT-GoA dissociation signal, Mean (Veh = 1.000) (Mock; IXO Log [M] -6, n = 3): 0.990
NanoBiT-GoA dissociation signal, Mean (Veh = 1.000) (Mock; IXO Log [M] -7, n = 3): 0.997
NanoBiT-GoA dissociation signal, Mean (Veh = 1.000) (Mock; IXO Log [M] -8, n = 3): 0.995
NanoBiT-GoA dissociation signal, Mean (Veh = 1.000) (Mock; IXO Log [M] -9, n = 3): 1.002
NanoBiT-GoA dissociation signal, Mean (Veh = 1.000) (Mock; IXO Log [M] -10, n = 3): 1.001
NanoBiT-GoA dissociation signal, Mean (Veh = 1.000) (Mock; IXO Log [M] -11, n = 3): 1.005
NanoBiT-GoA dissociation signal, Mean (Veh = 1.000) (Mock; IXO Log [M] -12, n = 3): 1.002
IC50 (M2R; M2R in HDL particles, +GoA): 1.8 nM
IC50 (M2R; M2R in HDL particles, absence of GoA): 47.7 nM
increase of affinity on addition of GoA (M2R; M2R in HDL particles): ~ 27 fold
competition curve data, Fig. 1b ([3H]-NMS binding) (M2R; log[M] -6, without GoA): 5.629 and 5.897 and 4.938
competition curve data, Fig. 1b ([3H]-NMS binding) (M2R; log[M] -7, +GoA): 1.735 and 2.591
competition curve data, Fig. 1b ([3H]-NMS binding) (M2R; log[M] -7, without GoA): 32.2784 and 32.9838 and 32.0245
competition curve data, Fig. 1b ([3H]-NMS binding) (M2R; log[M] -8, +GoA): 6.41 and 4.7831 and 8.225
competition curve data, Fig. 1b ([3H]-NMS binding) (M2R; log[M] -8, without GoA): 80.5549 and 71.1592 and 70.0024
competition curve data, Fig. 1b ([3H]-NMS binding) (M2R; log[M] -9, +GoA): 64.4578 and 59.7146 and 77.1975
competition curve data, Fig. 1b ([3H]-NMS binding) (M2R; log[M] -9, without GoA): 92.3489 and 93.3083 and 87.8063
competition curve data, Fig. 1b ([3H]-NMS binding) (M2R; log[M] -10, +GoA): 85.6735 and 79.355 and 99.5434
competition curve data, Fig. 1b ([3H]-NMS binding) (M2R; log[M] -10, without GoA): 97.3148 and 101.914 and 100.771
competition curve data, Fig. 1b ([3H]-NMS binding) (M2R; log[M] -11, +GoA): 89.0468 and 92.1461 and 118.807
competition curve data, Fig. 1b ([3H]-NMS binding) (M2R; log[M] -11, without GoA): 86.0992 and 80.6395 and 89.0477
competition curve data, Fig. 1b ([3H]-NMS binding) (M2R; log[M] -12, +GoA): 107.797 and 98.7044 and 86.8037
competition curve data, Fig. 1b ([3H]-NMS binding) (M2R; log[M] -12, without GoA): 98.7115 and 87.2702 and 99.5439
